Source: ChEMBL document CHEMBL3046001, “4-Thiazolidinone and 1-thia-3,4,9-triaza fluorene conjugates: synthesis, characterization and antimicrobial screening” (2013)
Converted amounts (≈) assume the structure as drawn. The source made the active and inactive calls. The rule behind the calls is not given here.

Tests used:
Format in all cases: functional
Escherichia coli [1] = assay: Antibacterial activity against Escherichia coli MTCC 1573 assessed as growth inhibition at 500 ug/mL after 48 hr by agar diffusion method; conditions: MTCC 1573, 48 h, read-out: DIZ
Pseudomonas aeruginosa [2] = assay: Antibacterial activity against Pseudomonas aeruginosa MTCC 424 assessed as growth inhibition at 100 ug/mL after 48 hr by agar diffusion method; conditions: MTCC 424, 48 h, read-out: DIZ
Aspergillus niger [3] = assay: Antifungal activity against Aspergillus niger MTCC 2546 assessed as growth inhibition at 750 ug/mL after 48 hr by agar diffusion method; conditions: MTCC 2546, 48 h, read-out: DIZ
Bacillus subtilis [4] = assay: Antibacterial activity against Bacillus subtilis MTCC 441 assessed as growth inhibition at 1000 ug/mL after 48 hr by agar diffusion method; conditions: MTCC 441, 48 h, read-out: DIZ
Pseudomonas aeruginosa [5] = assay: Antibacterial activity against Pseudomonas aeruginosa MTCC 424 assessed as growth inhibition at 1000 ug/mL after 48 hr by agar diffusion method; conditions: MTCC 424, 48 h, read-out: DIZ
Bacillus pumilus [6] = assay: Antibacterial activity against Bacillus pumilus MTCC 1456 assessed as growth inhibition at 1000 ug/mL after 48 hr by agar diffusion method; conditions: MTCC 1456, 48 h, read-out: DIZ
Bacillus pumilus [7] = assay: Antibacterial activity against Bacillus pumilus MTCC 1456 assessed as growth inhibition at 1250 ug/mL after 48 hr by agar diffusion method; conditions: MTCC 1456, 48 h, read-out: DIZ
Pseudomonas fluorescens [8] = assay: Antibacterial activity against Pseudomonas fluorescens MTCC 2421 assessed as growth inhibition at 500 ug/mL after 48 hr by agar diffusion method; conditions: MTCC 2421, 48 h, read-out: DIZ
Staphylococcus aureus [9] = assay: Antibacterial activity against Staphylococcus aureus MTCC 1430 assessed as growth inhibition at 750 ug/mL after 48 hr by agar diffusion method; conditions: MTCC 1430, 48 h, read-out: DIZ
Bacillus subtilis [10] = assay: Antibacterial activity against Bacillus subtilis MTCC 441 assessed as growth inhibition after 24 hr by tube dilution method; conditions: MTCC 441, 24 h
Micrococcus luteus [11] = assay: Antibacterial activity against Micrococcus luteus MTCC 1538 assessed as growth inhibition at 1000 ug/mL after 48 hr by agar diffusion method; conditions: MTCC 1538, 48 h, read-out: DIZ
Bacillus subtilis [12] = assay: Antibacterial activity against Bacillus subtilis MTCC 441 assessed as growth inhibition at 100 ug/mL after 48 hr by agar diffusion method; conditions: MTCC 441, 48 h, read-out: DIZ
Escherichia coli [13] = assay: Antibacterial activity against Escherichia coli MTCC 1573 assessed as growth inhibition at 100 ug/mL after 48 hr by agar diffusion method; conditions: MTCC 1573, 48 h, read-out: DIZ
Staphylococcus aureus [14] = assay: Antibacterial activity against Staphylococcus aureus MTCC 1430 assessed as growth inhibition at 1250 ug/mL after 48 hr by agar diffusion method; conditions: MTCC 1430, 48 h, read-out: DIZ
Micrococcus luteus [15] = assay: Antibacterial activity against Micrococcus luteus MTCC 1538 assessed as growth inhibition at 1250 ug/mL after 48 hr by agar diffusion method; conditions: MTCC 1538, 48 h, read-out: DIZ
Penicillium chrysogenum [16] = assay: Antifungal activity against Penicillium chrysogenum MTCC 161 assessed as growth inhibition at 500 ug/mL after 48 hr by agar diffusion method; conditions: MTCC 161, 48 h, read-out: DIZ
Penicillium chrysogenum [17] = assay: Antifungal activity against Penicillium chrysogenum MTCC 161 assessed as growth inhibition at 750 ug/mL after 48 hr by agar diffusion method; conditions: MTCC 161, 48 h, read-out: DIZ
Micrococcus luteus [18] = assay: Antibacterial activity against Micrococcus luteus MTCC 1538 assessed as growth inhibition at 250 ug/mL after 48 hr by agar diffusion method
Pseudomonas fluorescens [19] = assay: Antibacterial activity against Pseudomonas fluorescens MTCC 2421 assessed as growth inhibition after 24 hr by tube dilution method; conditions: MTCC 2421, 24 h
Pseudomonas aeruginosa [20] = assay: Antibacterial activity against Pseudomonas aeruginosa MTCC 424 assessed as growth inhibition at 250 ug/mL after 48 hr by agar diffusion method; conditions: MTCC 424, 48 h, read-out: DIZ
Staphylococcus aureus [21] = assay: Antibacterial activity against Staphylococcus aureus MTCC 1430 assessed as growth inhibition at 1000 ug/mL after 48 hr by agar diffusion method; conditions: MTCC 1430, 48 h, read-out: DIZ
Pseudomonas fluorescens [22] = assay: Antibacterial activity against Pseudomonas fluorescens MTCC 2421 assessed as growth inhibition at 100 ug/mL after 48 hr by agar diffusion method
Escherichia coli [23] = assay: Antibacterial activity against Escherichia coli MTCC 1573 assessed as growth inhibition at 1250 ug/mL after 48 hr by agar diffusion method; conditions: MTCC 1573, 48 h, read-out: DIZ
Bacillus subtilis [24] = assay: Antibacterial activity against Bacillus subtilis MTCC 441 assessed as growth inhibition at 1250 ug/mL after 48 hr by agar diffusion method; conditions: MTCC 441, 48 h, read-out: DIZ
Pseudomonas aeruginosa [25] = assay: Antibacterial activity against Pseudomonas aeruginosa MTCC 424 assessed as growth inhibition at 500 ug/mL after 48 hr by agar diffusion method; conditions: MTCC 424, 48 h, read-out: DIZ
Micrococcus luteus [26] = assay: Antibacterial activity against Micrococcus luteus MTCC 1538 assessed as growth inhibition at 750 ug/mL after 48 hr by agar diffusion method; conditions: MTCC 1538, 48 h, read-out: DIZ
Aspergillus niger [27] = assay: Antifungal activity against Aspergillus niger MTCC 2546 assessed as growth inhibition at 1250 ug/mL after 48 hr by agar diffusion method; conditions: MTCC 2546, 48 h, read-out: DIZ
Bacillus subtilis [28] = assay: Antibacterial activity against Bacillus subtilis MTCC 441 assessed as growth inhibition at 750 ug/mL after 48 hr by agar diffusion method; conditions: MTCC 441, 48 h, read-out: DIZ
Escherichia coli [29] = assay: Antibacterial activity against Escherichia coli MTCC 1573 assessed as growth inhibition after 24 hr by tube dilution method; conditions: MTCC 1573, 24 h
Bacillus subtilis [30] = assay: Antibacterial activity against Bacillus subtilis MTCC 441 assessed as growth inhibition at 500 ug/mL after 48 hr by agar diffusion method; conditions: MTCC 441, 48 h, read-out: DIZ
Penicillium chrysogenum [31] = assay: Antifungal activity against Penicillium chrysogenum MTCC 161 assessed as growth inhibition at 1000 ug/mL after 48 hr by agar diffusion method; conditions: MTCC 161, 48 h, read-out: DIZ
Bacillus pumilus [32] = assay: Antibacterial activity against Bacillus pumilus MTCC 1456 assessed as growth inhibition after 24 hr by tube dilution method; conditions: MTCC 1456, 24 h
Micrococcus luteus [33] = assay: Antibacterial activity against Micrococcus luteus MTCC 1538 assessed as growth inhibition after 24 hr by tube dilution method; conditions: MTCC 1538, 24 h
Escherichia coli [34] = assay: Antibacterial activity against Escherichia coli MTCC 1573 assessed as growth inhibition at 250 ug/mL after 48 hr by agar diffusion method; conditions: MTCC 1573, 48 h, read-out: DIZ
Pseudomonas aeruginosa [35] = assay: Antibacterial activity against Pseudomonas aeruginosa MTCC 424 assessed as growth inhibition after 24 hr by tube dilution method; conditions: MTCC 424, 24 h
Escherichia coli [36] = assay: Antibacterial activity against Escherichia coli MTCC 1573 assessed as growth inhibition at 750 ug/mL after 48 hr by agar diffusion method; conditions: MTCC 1573, 48 h, read-out: DIZ
Staphylococcus aureus [37] = assay: Antibacterial activity against Staphylococcus aureus MTCC 1430 assessed as growth inhibition at 500 ug/mL after 48 hr by agar diffusion method; conditions: MTCC 1430, 48 h, read-out: DIZ
Bacillus pumilus [38] = assay: Antibacterial activity against Bacillus pumilus MTCC 1456 assessed as growth inhibition at 100 ug/mL after 48 hr by agar diffusion method; conditions: MTCC 1456, 48 h, read-out: DIZ
Staphylococcus aureus [39] = assay: Antibacterial activity against Staphylococcus aureus MTCC 1430 assessed as growth inhibition at 250 ug/mL after 48 hr by agar diffusion method; conditions: MTCC 1430, 48 h, read-out: DIZ

For `CC1SCC(=O)N1c1nnc2c3cc(Cl)ccc3nc-2s1` (centres undefined), the zone of inhibition at 500 µg/mL (Escherichia coli [1]) was 14 mm, the zone of inhibition at 100 µg/mL (Pseudomonas aeruginosa [2]) was 7 mm and the zone of inhibition at 750 µg/mL (Aspergillus niger [3]) was 13 mm. The zone of inhibition at 1000 µg/mL (Bacillus subtilis [4]) was 19 mm, the zone of inhibition at 1000 µg/mL (Pseudomonas aeruginosa [5]) was 18 mm and the zone of inhibition at 1000 µg/mL (Bacillus pumilus [6]) was 15 mm. It also gave a zone of inhibition at 1250 µg/mL (Bacillus pumilus [7]) of 18 mm, a zone of inhibition at 500 µg/mL (Pseudomonas fluorescens [8]) of 8 mm and a zone of inhibition at 750 µg/mL (Staphylococcus aureus [9]) of 13 mm. It also gave an MIC (Bacillus subtilis [10]) of 50 µg/mL (≈ 148 µM), a zone of inhibition at 1000 µg/mL (Micrococcus luteus [11]) of 17 mm and a zone of inhibition at 100 µg/mL (Bacillus subtilis [12]) of 8 mm. It also gave a zone of inhibition at 100 µg/mL (Escherichia coli [13]) of 9 mm, a zone of inhibition at 1250 µg/mL (Staphylococcus aureus [14]) of 19 mm and a zone of inhibition at 1250 µg/mL (Micrococcus luteus [15]) of 19 mm. The zone of inhibition at 500 µg/mL (Penicillium chrysogenum [16]) was 12 mm, the zone of inhibition at 750 µg/mL (Penicillium chrysogenum [17]) was 14 mm and the “growth inhibition (GI)” value (Micrococcus luteus [18]) was “inactive”. For the same compound, the MIC (Pseudomonas fluorescens [19]) was 150 µg/mL (≈ 445 µM), the zone of inhibition at 250 µg/mL (Pseudomonas aeruginosa [20]) was 9 mm and the zone of inhibition at 1000 µg/mL (Staphylococcus aureus [21]) was 15 mm. The “growth inhibition (GI)” value (Pseudomonas fluorescens [22]) was “inactive”, the zone of inhibition at 1250 µg/mL (Escherichia coli [23]) was 21 mm and the zone of inhibition at 1250 µg/mL (Bacillus subtilis [24]) was 21 mm. It also gave a zone of inhibition at 500 µg/mL (Pseudomonas aeruginosa [25]) of 14 mm, a zone of inhibition at 750 µg/mL (Micrococcus luteus [26]) of 14 mm and a zone of inhibition at 1250 µg/mL (Aspergillus niger [27]) of 17 mm. For the same compound, the zone of inhibition at 750 µg/mL (Bacillus subtilis [28]) was 17 mm, the MIC (Escherichia coli [29]) was 30 µg/mL (≈ 89.1 µM) and the zone of inhibition at 500 µg/mL (Bacillus subtilis [30]) was 15 mm. For the same compound, the zone of inhibition at 1000 µg/mL (Penicillium chrysogenum [31]) was 18 mm, the MIC (Bacillus pumilus [32]) was 40 µg/mL (≈ 119 µM) and the MIC (Micrococcus luteus [33]) was 150 µg/mL (≈ 445 µM). For the same compound, the zone of inhibition at 250 µg/mL (Escherichia coli [34]) was 11 mm, the MIC (Pseudomonas aeruginosa [35]) was 50 µg/mL (≈ 148 µM) and the zone of inhibition at 750 µg/mL (Escherichia coli [36]) was 17 mm. For the same compound, the zone of inhibition at 500 µg/mL (Staphylococcus aureus [37]) was 10 mm, the zone of inhibition at 100 µg/mL (Bacillus pumilus [38]) was 8 mm and the zone of inhibition at 250 µg/mL (Staphylococcus aureus [39]) was 8 mm.
